The record followed here is patent US7858635B2 (priority 2005, dated 2010).

One test addresses T1, M4 muscarinic receptor (Homo sapiens, UniProt P08173).
T1 construct: expressed in transfected cells; host or cells: CHO cells (M4-CHO, under puromycin, zeocin and blasticidin selection)
T1 sequence (P08173 1-479): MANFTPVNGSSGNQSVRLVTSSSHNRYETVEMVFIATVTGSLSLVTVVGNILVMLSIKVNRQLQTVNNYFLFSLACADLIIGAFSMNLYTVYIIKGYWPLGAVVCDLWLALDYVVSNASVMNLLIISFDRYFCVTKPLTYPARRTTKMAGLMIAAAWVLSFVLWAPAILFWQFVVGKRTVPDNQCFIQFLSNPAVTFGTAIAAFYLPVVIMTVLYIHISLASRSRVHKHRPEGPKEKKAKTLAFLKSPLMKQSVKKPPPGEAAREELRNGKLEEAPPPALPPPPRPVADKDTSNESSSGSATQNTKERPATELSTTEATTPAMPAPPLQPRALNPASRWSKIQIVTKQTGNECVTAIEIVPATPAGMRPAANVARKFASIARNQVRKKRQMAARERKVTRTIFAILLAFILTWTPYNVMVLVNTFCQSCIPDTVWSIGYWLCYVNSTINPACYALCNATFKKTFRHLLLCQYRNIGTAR
The test is described as follows: Functional mobilization of intracellular calcium (FLIPR, Fluo-3), M4-CHO cells. The test is classed as cell-based. The following applies: compound nos. 1-454; for Emax: 100% efficacy is the maximum response obtained with the Carbachol control, read-out: M4 Efficacy. The method in brief: (§1)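 Fluo-3 read-out, ex 488/em 540 nm, 60 sec on FLIPR 3. For agonist mode, compound added directly; for inhibition, 15 min compound pre-incubation before carbachol at EC80 (added as a 3× solution), or co-application. Buffer pH 7.4 with 1 mM probenecid; DMSO 0.5%.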
(Calcium flux is commonly read through the fluorescence of an indicator in the cells.)

In the next test the target is T2, M1 muscarinic receptor (Homo sapiens, UniProt P11229).
T2 construct: expressed in transfected cells; host or cells: CHO cells (M1-CHO, under zeocin and G418 selection)
T2 sequence (P11229 1-460): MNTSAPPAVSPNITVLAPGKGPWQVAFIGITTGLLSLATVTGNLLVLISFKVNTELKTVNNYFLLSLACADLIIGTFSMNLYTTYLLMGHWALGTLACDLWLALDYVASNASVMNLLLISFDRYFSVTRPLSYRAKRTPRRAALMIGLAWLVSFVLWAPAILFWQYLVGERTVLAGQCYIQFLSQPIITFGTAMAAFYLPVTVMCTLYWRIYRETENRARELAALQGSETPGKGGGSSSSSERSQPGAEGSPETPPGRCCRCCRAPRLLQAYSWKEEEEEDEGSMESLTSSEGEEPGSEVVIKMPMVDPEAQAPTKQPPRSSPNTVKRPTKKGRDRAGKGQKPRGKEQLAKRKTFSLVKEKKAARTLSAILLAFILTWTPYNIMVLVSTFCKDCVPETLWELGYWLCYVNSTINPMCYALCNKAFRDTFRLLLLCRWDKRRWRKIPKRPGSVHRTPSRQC
Nature of the test: Functional mobilization of intracellular calcium (FLIPR, Fluo-3), M1-CHO cells. To be noted: compound nos. 1-454; for Emax: 100% efficacy is the maximum response obtained with the Carbachol control, read-out: M1 Efficacy. The test is classed as cell-based. In a few lines:
as §1

The mark [1] stands for this setting: M4-CHO cells, calcium mobilization.
[2] abbreviates: M1-CHO cells, calcium mobilization.

`CCOC(=O)N1CCC(N2CCC3(CC2)CN(C(C)=O)c2ccc(-c4ccc(C(C)=O)cc4)cc23)CC1` [compound 221]: the Emax is under 55% on M4 muscarinic receptor and 65 to 85% at M1 muscarinic receptor. Moreover, at M4 muscarinic receptor (setting [1]), the “M4 Activity” value is on record as “+ (activity was measured to be greater than or equal to 4.0 μM)”. In addition, at M1 muscarinic receptor (setting [2]), the “M1 Activity” value was “++ (activity was measured to be between 0.7 μM and 3.0 μM)”.
As for `Cc1ccc2c(c1)C1(CCN(CC3CC4C=CC3C4)CC1)CN2` (stereo not shown) [compound 3], the Emax at M4 muscarinic receptor lay in the range of 55 to 70%; on M1 muscarinic receptor it was 65 to 85%. In addition, the “M4 Activity” value at M4 muscarinic receptor (setting [1]) is “++ (activity was measured to be between 0.1 μM and 4.0 μM)”. For the same compound, the “M1 Activity” value on M1 muscarinic receptor (setting [2]) is recorded as “+++ (activity was measured to be less than or equal to 0.7 μM)”.
In the case of `CCOC(=O)N1CCC(N2CCC3(CC2)CN(C(C)=O)c2ccc(-c4cccc(C#N)c4)cc23)CC1` [compound 373], the results for the Emax on M4 muscarinic receptor and on M1 muscarinic receptor were over 70% and 65 to 85%, respectively. Besides, the “M4 Activity” value at M4 muscarinic receptor (setting [1]) was “++ (activity was measured to be between 0.1 μM and 4.0 μM)”. For the same compound, the “M1 Activity” value at M1 muscarinic receptor (setting [2]) is reported as “+++ (activity was measured to be less than or equal to 0.7 μM)”.
For the compound `O=C(O[C@@H]1CCOC1)N1CC2(CCN(C3CC4CCC(C3)N4C(=O)O[C@H]3CCOC3)CC2)c2cc(F)ccc21` (stereo partly shown) [compound 93], the figures for the Emax at M4 muscarinic receptor and on M1 muscarinic receptor were under 55% and under 65%, respectively. Moreover, the “M4 Activity” value on M4 muscarinic receptor (setting [1]) is “++ (activity was measured to be between 0.1 μM and 4.0 μM)”. In addition, the “M1 Activity” value on M1 muscarinic receptor (setting [2]) was “++ (activity was measured to be between 0.7 μM and 3.0 μM)”.
In the case of `Clc1ccc2c(c1)C1(CCN(C3CCCCC3)CC1)CO2` [compound 5], the Emax on M4 muscarinic receptor is over 70%; on M1 muscarinic receptor, 65 to 85%. Besides, the “M4 Activity” value on M4 muscarinic receptor (setting [1]) was “+++ (activity was measured to be less than or equal to 0.1 μM)”. Besides, the “M1 Activity” value at M1 muscarinic receptor (setting [2]) is reported as “+++ (activity was measured to be less than or equal to 0.7 μM)”.
Take `CCCC(=O)N1CC2(CCN(C3CCN(C(=O)OCC)CC3)CC2)c2cc(F)ccc21` [compound 324]: the Emax is 55 to 70% at M4 muscarinic receptor and 65 to 85% on M1 muscarinic receptor. In addition, the “M4 Activity” value at M4 muscarinic receptor (setting [1]) was “+ (activity was measured to be greater than or equal to 4.0 μM)”. For the same compound, the “M1 Activity” value at M1 muscarinic receptor (setting [2]) is “++ (activity was measured to be between 0.7 μM and 3.0 μM)”.
For `Fc1ccc2c(c1)C1(CCN(C[C@H]3C[C@H]4C=C[C@H]3C4)CC1)CO2` [compound 376], on M4 muscarinic receptor, the “M4 Activity” value is on record as “+ (activity was measured to be greater than or equal to 4.0 μM)” and the Emax was 55 to 70%. Further, on M1 muscarinic receptor, the “M1 Activity” value is on record as “+++ (activity was measured to be less than or equal to 0.7 μM)” and the Emax fell in the range of 65 to 85%.
With `O=C(OC1CCC1)N1C2CCC1CC(N1CCC3(CC1)C(=O)Nc1ccccc13)C2` (stereo not shown) [compound 217], the Emax at M4 muscarinic receptor was under 55%; at M1 muscarinic receptor, under 65%. Moreover, the “M4 Activity” value at M4 muscarinic receptor (setting [1]) is “+ (activity was measured to be greater than or equal to 4.0 μM)”. For the same compound, the “M1 Activity” value on M1 muscarinic receptor (setting [2]) was “++ (activity was measured to be between 0.7 μM and 3.0 μM)”.
As for `CCCCC(=O)N1CC2(CCN(C3CCN(C(=O)OCC)CC3)CC2)c2cc(F)ccc21` [compound 270], the results for the Emax on M4 muscarinic receptor and on M1 muscarinic receptor were over 70% and 65 to 85%, respectively. Besides, the “M4 Activity” value at M4 muscarinic receptor (setting [1]) is “+++ (activity was measured to be less than or equal to 0.1 μM)”. For the same compound, on M1 muscarinic receptor (setting [2]), the “M1 Activity” value is reported as “+++ (activity was measured to be less than or equal to 0.7 μM)”.
Take `O=C(OC1CCC1)N1C2CCC1CC(N1CCC3(CC1)COc1ccc(F)cc13)C2` (stereo not shown) [compound 123]: the Emax at M4 muscarinic receptor was under 55%; at M1 muscarinic receptor it was under 65%. Besides, the “M4 Activity” value on M4 muscarinic receptor (setting [1]) was “+ (activity was measured to be greater than or equal to 4.0 μM)”. Also, the “M1 Activity” value at M1 muscarinic receptor (setting [2]) was “++ (activity was measured to be between 0.7 μM and 3.0 μM)”.
